From patent US20140255361A1, “ESTROGEN-RECEPTOR BASED LIGAND SYSTEM FOR REGULATING PROTEIN STABILITY” (The Board of Trustees Of The Leland Stanford Junior …, priority 2013, published 2014)
Changes are numbered by the printed parent chain. Where two headings read alike, the source gives them in different places.

Assays:
GFP-ERLID fusion protein = target: T1, GFP-ERLID fusion protein (Homo sapiens, UniProt P03372)
T1 sequence (P03372 with tags, fused parts or gaps): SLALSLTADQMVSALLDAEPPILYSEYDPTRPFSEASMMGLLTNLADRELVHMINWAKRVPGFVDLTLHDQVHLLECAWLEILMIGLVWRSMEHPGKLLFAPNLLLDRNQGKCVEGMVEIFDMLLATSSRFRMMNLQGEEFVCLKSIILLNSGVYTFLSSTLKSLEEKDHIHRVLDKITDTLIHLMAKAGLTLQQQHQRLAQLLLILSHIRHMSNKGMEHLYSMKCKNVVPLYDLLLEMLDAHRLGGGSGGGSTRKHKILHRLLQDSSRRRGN

GFP-LID = experiment: Stability of GFP-LID fusion protein by flow cytometry (MFI) in NIH3T3 cells; format: cell-based; settings: 1 μM Shield-1, 24 hours, FIG. 2
From the text: (§1) In studies conducted in support of the invention, and with reference to the Materials and Methods set forth in the Examples section below, the stabilities of two LID domain fusion proteins, a first generation construct based on the FKBP protein, here called “GFP-LID” and a next-generation construct having improved characteristics, here called “GFP-LID #15” were compared. […] For this study, NIH3T3 fibroblast cells were infected with retrovirus expressing GFP-LID or GFP-LID #15. Transduced NIH3T3 cells were treated with or without 1 μM Shield-1 for 24 hours. The fluorescence intensities of these GFP fusions were analyzed by flow cytometry. The median fluorescence intensity (MFI) was used to determine the stability of the GFP fusion proteins.
(§2) The INX ecotropic packaging cell line was transfected using standard Lipofectamine 2000 protocols. Viral supernatants were harvested 48 h post-transfection, filtered. NIH3T3 cells were incubated with the retroviral supernatants supplemented with 4 μg/ml polybrene for 4 h at 37° C. Cells were washed once with PBS and cultured in growth media for 48 hrs to allow for viral integration, then assayed as described.
(§3) Twenty-four hours prior to analysis, transduced NIH3T3 cells were plated at 1×10^5 cells per well of a 12-well plate. […] Cells were analyzed at the Stanford Shared FACS Facility using Vantoo or LSRII with 10,000 events represented.

GFP-LID #15 = experiment: Stability of GFP-LID #15 fusion protein by flow cytometry (MFI) in NIH3T3 cells; format: cell-based; settings: 1 μM Shield-1, 24 hours, FIG. 2
From the text: as §1, §2, §3

[1] = test system: YFP-FKBP12 LID domain fusion protein; experiment: FACS screen of YFP fused to extended FKBP12 (LID domain) in NIH3T3 cells; format: cell-based, mouse
From the text: Human […] protein was modified to include a 19-residue peptide extension at the C-terminus of the FKBP12 protein. Genetic diversity was engineered into this C-terminal extension using synthetic oligonucleotides and PCR, and this library of extended FKBP genes was fused to the 3′-end of the YFP gene. A library of plasmids was stably introduced into NIH3T3 cells using retrovirus, and FACS was used to screen the transduced cells for cells expressing YFP in the absence of the small molecule ligand Shield-1. […] This domain is identified herein by SEQ ID NO: 1.

[2] = target: T2, estrogen receptor ligand binding domain mutants (four and six mutations) (Homo sapiens, UniProt P03372, G521R/L384M/M421G/N519S/T371A/Y537S); experiment: Drug-dependent stability of ERLBD mutant clones with YFP or GFP reporter; format: cell-based; settings: relative to the parent ESR1 sequence
T2 construct: residues 305-549 of estrogen receptor-1, ERS1; YFP or GFP reporter
T2 sequence (P03372 305-549 T371A/L384M/M421G/N519S/G521R/Y537S): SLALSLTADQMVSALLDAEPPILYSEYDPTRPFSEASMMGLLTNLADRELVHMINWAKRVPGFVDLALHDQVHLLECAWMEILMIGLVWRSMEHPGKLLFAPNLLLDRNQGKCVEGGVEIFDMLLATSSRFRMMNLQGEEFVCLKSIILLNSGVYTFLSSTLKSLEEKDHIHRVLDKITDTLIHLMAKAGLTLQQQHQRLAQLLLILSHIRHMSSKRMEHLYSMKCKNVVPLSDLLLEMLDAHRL

[3] = target: T3, four point mutant of the estrogen receptor ligand binding domain (L384M, M421G, G521R and Y437S) fused to GFP (Homo sapiens, UniProt P03372, G521R/L384M/M421G/Y537S); settings: cross-hatched bars, FIG. 7A
T3 sequence (P03372 with tags, fused parts or gaps L384M/M421G/G521R/Y537S): T1 sequence (P03372 with tags, fused parts or gaps) with L80M, M117G, G217R, Y233S

wild-type ER LBDs = settings: cited from earlier work
GFP-ERLID = GFP-ERLID (Homo sapiens, UniProt P03372)
HA-Bax-ERLID = HA-Bax-ERLID (Homo sapiens, UniProt P03372)
HA-hRPA2-ERLID = HA-hRPA2-ERLID (Homo sapiens, UniProt P03372)
HA-hUBC13-ERLID = HA-hUBC13-ERLID (Homo sapiens, UniProt P03372)
[4] = SEQ ID NO: 3 fused to GFP, open bars, FIG. 7A

## C[C@]12CC[C@@H]3c4ccc(O)cc4C[C@@H](CCCCCCCCC[S+]([O-])CCCC(F)(F)C(F)(F)F)[C@H]3[C@@H]1CC[C@@H]2O (stereo partly shown) [fulvestrant]
GFP-ERLID fusion protein; 10 μM fulvestrant, NIH3T3 cells, FIG. 4
  stability of GFP-ERLID fusion protein: induced degradation
GFP-ERLID fusion protein; [4]
  stability of wild type GFP-ERLID fusion protein (MFI): destabilization

## CC[C@H](C(=O)N1CCCC[C@H]1C(=O)O[C@H](CCc1ccc(OC)c(OC)c1)c1cccc(OCCN2CCOCC2)c1)c1cc(OC)c(OC)c(OC)c1 [Shield-1]
GFP-LID
  stability of GFP fusion protein (median fluorescence intensity): destabilized
GFP-LID #15
  stability of GFP fusion protein (median fluorescence intensity): destabilized
[1]
  YFP levels on addition of ligand: dropped significantly

## O=C1CCC2(Cc3ccc(Cl)cc3)Cc3cc(O)ccc3C2=C1c1ccc(OCCN2CCCCC2)cc1 (stereo not shown) [CMP8, 9a-(4-Chlorobenzyl)-7-hydroxy-4-[4-(2-piperidin-1-ylethoxy)phenyl]-1,2,9,9a-tetrahydro-3H-fluoren-3-one]
[2]
  dynamic range of stability in the presence of ligand: large dynamic
GFP-ERLID fusion protein; [4]
  stability of wild type GFP-ERLID fusion protein (MFI): destabilization
[3]
  stability of mutant fusion protein (MFI): destabilization
wild-type ER LBDs
  binding to wild-type ER LBDs: does not bind well

## 4-hydroxytamoxifen [4-OHT]
GFP-ERLID fusion protein
  stability of GFP-ERLBD (MFI) as a function of amount of ligand: dose dependent destabilization
  stability of GFP-ERLID fusion protein (MFI): induces degradation
  stability of fusion protein (MFI) after E2 washout with 4-hydroxytamoxifen in the wash solution (E2 wo+4OHT): destabilizes
  stability of fusion protein (MFI) after ligand exposure: destabilizes
  stability of wild type GFP-ERLID fusion protein (MFI): destabilization
[3]
  stability of mutant fusion protein (MFI): destabilization
GFP-ERLID
  level of fusion protein by Western blot: destabilized
HA-Bax-ERLID
  level of fusion protein by Western blot: destabilized
HA-hRPA2-ERLID
  level of fusion protein by Western blot: destabilized
HA-hUBC13-ERLID
  level of fusion protein by Western blot: destabilized
